In patent US10759783B2, “Biaryl inhibitors of Bruton'S tyrosine kinase” (BIOGEN MA INC., priority 2013, dated 2020):
pIC50: −log10 of the molar value.

Columns and labels:
[1] = molecular target: BTK (phospho-BTK) in human whole blood (Homo sapiens, UniProt Q06187); experiment: In vitro PD assay in human whole blood (pBTK assay)
BTK enzyme = molecular target: T1, BTK enzyme (Homo sapiens, UniProt Q06187); experiment: In vitro BTK kinase assay: BTK-POLYGAT-LS assay; assay type: biochemical; conditions: ATP 10 μM, read-out: IC50 (10uMATP)
T1 construct: purchased Upstate 14-552
T1 sequence (Q06187 whole entry): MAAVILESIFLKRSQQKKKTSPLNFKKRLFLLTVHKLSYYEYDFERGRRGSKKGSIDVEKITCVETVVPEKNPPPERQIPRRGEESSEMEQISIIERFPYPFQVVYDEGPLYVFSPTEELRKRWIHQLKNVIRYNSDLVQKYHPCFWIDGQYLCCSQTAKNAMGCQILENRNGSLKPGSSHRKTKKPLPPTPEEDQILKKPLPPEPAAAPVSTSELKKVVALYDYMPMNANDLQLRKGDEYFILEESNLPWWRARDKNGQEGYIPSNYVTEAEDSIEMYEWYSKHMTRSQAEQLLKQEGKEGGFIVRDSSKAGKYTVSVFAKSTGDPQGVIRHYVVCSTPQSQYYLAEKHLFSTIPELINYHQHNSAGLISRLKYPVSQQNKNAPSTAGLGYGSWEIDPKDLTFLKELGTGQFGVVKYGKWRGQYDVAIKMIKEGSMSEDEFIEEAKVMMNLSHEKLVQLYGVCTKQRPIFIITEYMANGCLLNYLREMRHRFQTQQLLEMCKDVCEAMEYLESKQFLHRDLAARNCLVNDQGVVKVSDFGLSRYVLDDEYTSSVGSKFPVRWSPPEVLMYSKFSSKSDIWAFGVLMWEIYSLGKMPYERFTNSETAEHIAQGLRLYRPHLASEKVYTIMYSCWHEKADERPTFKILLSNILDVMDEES
Outline: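 Human BTK activity was measured with final 10 μM ATP and 100 nM polyGAT substrate in pH 7.5 Tris buffer with 10 mM MgCl2, DTT, Triton X-100 and casein.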

Chain of BTK (phospho-BTK) in human whole blood (Q06187 whole entry): as above

Structure (SMILES)	pIC50 [1]	pIC50 (BTK enzyme)
Cc1cc(-c2ccnc(Nc3cnn(C4CN(C)C4)c3)n2)ccc1CNC(=O)N1CC(OC(C)(C)C)C1 [Example I-215, 3-(tert-butoxy)-N-(2-methyl-4-(2-((1-(1-methylazetidin-3-yl)-1H-pyrazol-4-yl)amino)pyrimidin-4-yl)benzyl) azetidine-1-carboxamide]	> 6.30	> 8.00
CCn1cc(Nc2nccc(-c3ccc(CNC(=O)N4CC(OC(C)(C)C)C4)c(C)c3)n2)cn1 [Example I-216, 3-(tert-butoxy)-N-(4-(2-((1-ethyl-1H-pyrazol-4-yl)amino)pyrimidin-4-yl)-2-methylbenzyl)azetidine-1-carboxamide]	> 6.30	> 8.00
Cc1cc(-c2ccnc(Nc3cnn(CCO)c3)n2)ccc1CNC(=O)N1CC(OC(C)C)C1 [Example I-217, N-(4-(2-((1-(2-hydroxyethyl)-1H-pyrazol-4-yl)amino)pyrimidin-4-yl)-2-methylbenzyl)-3-isopropoxyazetidine-1-carboxamide]	> 6.30	> 8.00
Cc1cc(-c2ccnc(Nc3cnn(C4CN(C)C4)c3)n2)ccc1CNC(=O)N1CC(OC(C)C)C1 [Example I-218, 3-isopropoxy-N-(2-methyl-4-(2-((1-(1-methylazetidin-3-yl)-1H-pyrazol-4-yl)amino)pyrimidin-4-yl)benzyl)azetidine-1-carboxamide]	> 6.30	> 8.00
Cc1cc(-c2ccnc(Nc3cnn(C4CCN(C)CC4)c3)n2)ccc1CNC(=O)N1CC(OC(C)C)C1 [Example I-219, 3-isopropoxy-N-(2-methyl-4-(2-((1-(1-methylpiperidin-4-yl)-1H-pyrazol-4-yl)amino)pyrimidin-4-yl)benzyl)azetidine-1-carboxamide]	> 6.30	> 8.00
Cc1cc(-c2ccnc(Nc3cnn(C4CCOCC4)c3)n2)ccc1CNC(=O)N1CC(OC(C)C)C1 [Example I-221, 3-isopropoxy-N-(2-methyl-4-(2-((1-(tetrahydro-2H-pyran-4-yl)-1H-pyrazol-4-yl)amino)pyrimidin-4-yl)benzyl)azetidine-1-carboxamide]	> 6.30	> 8.00
Cc1cc(-c2ccnc(Nc3cn[nH]c3)n2)ccc1CNC(=O)N1CC(OC(C)C)C1 [Example I-222, N-(4-(2-((1H-pyrazol-4-yl)amino)pyrimidin-4-yl)-2-methylbenzyl)-3-isopropoxyazetidine-1-carboxamide]	5.82 to 6.30	> 8.00
Cc1cc(-c2ccnc(Nc3cnn(C)c3C)n2)ccc1CNC(=O)N1CC(OC(C)(C)C)C1 [Example I-223, 3-(tert-butoxy)-N-(4-(2-((1,5-dimethyl-1H-pyrazol-4-yl)amino)pyrimidin-4-yl)-2-methylbenzyl)azetidine-1-carboxamide]	5.82 to 6.30	> 8.00
Cc1cc(-c2ccnc(Nc3cnn(C)c3)n2)ccc1CNC(=O)N1CCC(C(C)(C)C)C1 (stereo not shown) [Example I-224, 3-(tert-butyl)-N-(2-methyl-4-(2-((1-methyl-1H-pyrazol-4-yl)amino)pyrimidin-4-yl)benzyl)pyrrolidine-1-carboxamide]	> 6.30	> 8.00
Cc1cc(-c2cc(Nc3ccc(N4CCN(C)CC4)cn3)ncn2)ccc1CNC(=O)c1cnn(C(C)(C)C)c1 [Example I-225, 1-(tert-butyl)-N-(2-methyl-4-(6-((5-(4-methylpiperazin-1-yl)pyridin-2-yl)amino)pyrimidin-4-yl)benzyl)-1H-pyrazole-4-carboxamide]	> 6.30	> 8.00
Cc1cc(-c2cc(Nc3ccc(N4CCN(C)CC4)cn3)ncn2)ccc1CNC(=O)c1ccn(C(C)(C)C)n1 [Example I-226, 1-(tert-butyl)-N-(2-methyl-4-(6-((5-(4-methylpiperazin-1-yl)pyridin-2-yl)amino)pyrimidin-4-yl)benzyl)-1H-pyrazole-3-carboxamide]	> 6.30	> 8.00
COCCn1cc(Nc2nccc(-c3ccc4c(c3)CCCC[C@H]4NC(=O)N3CC(OC(C)C)C3)n2)cn1 [Example I-227, (R)-3-isopropoxy-N-(2-(2-((1-(2-methoxyethyl)-1H-pyrazol-4-yl)amino)-pyrimidin-4-yl)-6,7,8,9-tetrahydro-5H-benzo[7]annulen-5-yl)azetidine-1-carboxamide]	> 6.30	> 8.00
CC(C)(C)OC1CN(C(=O)N[C@@H]2CCCCc3cc(-c4ccnc(Nc5cnn(CCO)c5)n4)ccc32)C1 [Example I-229, (R)-3-(tert-butoxy)-N-(2-(2-((1-(2-hydroxyethyl)-1H-pyrazol-4-yl)amino)-pyrimidin-4-yl)-6,7,8,9-tetrahydro-5H-benzo[7]annulen-5-yl)azetidine-1-carboxamide]	> 6.30	> 8.00
Cc1cc(-c2cc(Nc3cc4n(n3)CCNC4)ncn2)ccc1CNC(=O)c1cnn(C(C)(C)C)c1 [Example I-231, 1-(tert-butyl)-N-(2-methyl-4-(6-((4,5,6,7-tetrahydropyrazolo[1,5-a]pyrazin-2-yl)amino)-pyrimidin-4-yl)benzyl)-1H-pyrazole-4-carboxamide]	> 6.30	> 8.00
CCN1CCn2nc(Nc3cc(-c4ccc(CNC(=O)c5cnn(C(C)(C)C)c5)c(C)c4)ncn3)cc2C1 [Example I-232, 1-(tert-butyl)-N-(4-(6-((5-ethyl-4,5,6,7-tetrahydropyrazolo[1,5-a]pyrazin-2-yl)amino)pyrimidin-4-yl)-2-methylbenzyl)-1H-pyrazole-4-carboxamide]	> 6.30	> 8.00
Cc1cc(-c2cc(Nc3cc4n(n3)CCN(CCO)C4)ncn2)ccc1CNC(=O)c1cnn(C(C)(C)C)c1 [Example I-233, 1-(tert-butyl)-N-(4-(6-((5-(2-hydroxyethyl)-4,5,6,7-tetrahydropyrazolo[1,5-a]pyrazin-2-yl)amino)pyrimidin-4-yl)-2-methylbenzyl)-1H-pyrazole-4-carboxamide]	> 6.30	> 8.00
Cc1cc(-c2cc(Nc3cc4n(n3)CCCNC4)ncn2)ccc1CNC(=O)c1cnn(C(C)(C)C)c1 [Example I-234, 1-(tert-butyl)-N-(2-methyl-4-(6-((5,6,7,8-tetrahydro-4H-pyrazolo[1,5-a][1,4]diazepin-2-yl)amino)pyrimidin-4-yl)benzyl)-1H-pyrazole-4-carboxamide]	> 6.30	> 8.00
Cc1cc(-c2cc(Nc3cc4n(n3)CCCN(CCO)C4)ncn2)ccc1CNC(=O)c1cnn(C(C)(C)C)c1 [Example I-235, 1-(tert-butyl)-N-(4-(6-((5-(2-hydroxyethyl)-5,6,7,8-tetrahydro-4H-pyrazolo[1,5-a][1,4]diazepin-2-yl)amino)pyrimidin-4-yl)-2-methylbenzyl)-1H-pyrazole-4-carboxamide]	> 6.30	> 8.00
Cc1cc(-c2cc(Nc3cc4n(n3)CCCN(C)C4)ncn2)ccc1CNC(=O)c1cnn(C(C)(C)C)c1 [Example I-236, 1-(tert-butyl)-N-(2-methyl-4-(6-((5-methyl-5,6,7,8-tetrahydro-4H-pyrazolo[1,5-a][1,4]diazepin-2-yl)amino)pyrimidin-4-yl)benzyl)-1H-pyrazole-4-carboxamide]	> 6.30	> 8.00
Cc1cc(-c2cc(Nc3cc4n(n3)CCOC4)ncn2)ccc1CNC(=O)c1cnn(C(C)(C)C)c1 [Example I-237, 1-(tert-butyl)-N-(4-(6-((6,7-dihydro-4H-pyrazolo[5,1-c][1,4]oxazin-2-yl)amino)pyrimidin-4-yl)-2-methylbenzyl)-1H-pyrazole-4-carboxamide]	> 6.30	> 8.00
CCC1CN(C(=O)NCc2ccc(-c3ccnc(Nc4cnn(C)c4)n3)cc2C)C1 [Example I-238, 3-Ethyl-N-(2-methyl-4-(2-((1-methyl-1H-pyrazol-4-yl)amino)pyrimidin-4-yl)benzyl)azetidine-1-carboxamide]	> 6.30	> 8.00
Cc1cc(-c2cc(Nc3cc4n(n3)CC(=O)N(C)C4)ncn2)ccc1CNC(=O)N1CC(OC(C)(C)C)C1 [Example I-239, 3-(tert-butoxy)-N-(2-methyl-4-(6-((5-methyl-6-oxo-4,5,6,7-tetrahydropyrazolo-[1,5-a]pyrazin-2-yl)amino)pyrimidin-4-yl)benzyl) azetidine-1-carboxamide]	> 6.30	> 8.00
CN1CCn2nc(Nc3cc(-c4ccc(CNC(=O)c5cnn(C(C)(C)C)c5)c(Cl)c4)ncn3)cc2C1 [Example I-240, 1-(tert-butyl)-N-(2-chloro-4-(6-((5-methyl-4,5,6,7-tetrahydropyrazolo[1,5-a]-pyrazin-2-yl)amino)pyrimidin-4-yl)benzyl)-1H-pyrazole-4-carboxamide]	> 6.30	> 8.00
CN1CCn2nc(Nc3cc(-c4ccc(CNC(=O)c5cnn(C(C)(C)C)c5)c(C(F)(F)F)c4)ncn3)cc2C1 [Example I-241, 1-(tert-butyl)-N-(4-(6-((5-methyl-4,5,6,7-tetrahydropyrazolo[1,5-a]pyrazin-2-yl)amino)pyrimidin-4-yl)-2-(trifluoromethyl)benzyl)-1H-pyrazole-4-carboxamide]	> 6.30	> 8.00
Cc1cc(-c2cc(Nc3cc4n(n3)CCS(=O)(=O)C4)ncn2)ccc1CNC(=O)c1cnn(C(C)(C)C)c1 [Example I-242, 1-(tert-butyl)-N-(4-(6-((5,5-dioxido-6,7-dihydro-4H-pyrazolo[5,1-c][1,4]thiazin-2-yl)amino)pyrimidin-4-yl)-2-methylbenzyl)-1H-pyrazole-4-carboxamide]	> 6.30	> 8.00
[2H]C([2H])([2H])n1cc(Nc2cc(-c3ccc(CNC(=O)N4CC(OC(C)C)C4)c(C)c3)ncn2)cn1 [Example I-243, 3-isopropoxy-N-(2-methyl-4-(6-((1-d3-methyl-1H-pyrazol-4-yl)amino)pyrimidin-4-yl)benzyl)azetidine-1-carboxamide]	> 6.30	> 8.00
